As usually defined, the IC50 is the midpoint of a concentration-inhibition curve. Read a low IC50 as higher potency.

Read-outs that look alike come from different tables or passages of the source. Positions of bridges follow the written chain, without caps; N, C: chain ends. Residues, ends and D or L forms follow the SMILES beside them. Some results are limits rather than exact numbers.

The values below come from paper PMC11853379, “Glioblastoma Cell Migration, Invasion and Vasculogenic Mimicry Downmodulated by Novel uPAcyclin Derivatives” (Cells, 2025).

Holding throughout (assay type): cell-based, human
For test [1], the system named is U251-MG cells. Description: Cell viability / proliferation, Trypan blue exclusion, U251-MG. The settings on record: DMEM/10% FBS, 100 nM peptide, 24, 48 and 72 h. As to the method: (§1) Cell viability was tested in DMEM/10% FBS in the presence of 100 nM uPAcyclin or Ala peptides via a Trypan blue exclusion assay, as previously reported, using 4 × 10^4 U87-MG and U251-MG glioblastoma cells/sample followed for 24, 48 and 72 h.
(§2) To rule out the possibility that the effects of uPAcyclin and Ala peptides could be due to the inhibition of cell proliferation, cell growth in the presence of these peptides was monitored for 24, 48 and 72 h (Supporting Information, Figure S2). U87-MG and U251-MG cells were exposed to diluents or to serum in the presence of 100 nM uPAcyclin, [Ala^1]uPAcyclin, [Ala^4]uPAcyclin, [Ala^8]uPAcyclin and [Ala^2,Ala^5]uPAcyclin (for the peptide choice, see above), and cell viability was tested at the indicated times using Trypan blue (Figure S2A,B). Both cell lines proliferate in culture in the presence of serum (DMEM/10% FBS), but not in a serum-free medium (DMEM). The growth rates of the U87-MG and U251-MG glioblastoma cell lines were similar, regardless of the exposure to 100 nM of uPAcyclin, [Ala^1]uPAcyclin, [Ala^4]uPAcyclin and [Ala^8]uPAcyclin.
(§3) Figure S5. Cell Viability Assay.
(§4) Unaffected proliferation of U87-MG and U251-MG glioblastoma cells exposed to uPacyclin and selected Ala-peptides. 2x104 U87-MG (A) or U251-MG (B) were seeded in 12 well plates for 24 h in DMEM-10% FBS and serum-starved for 24 h. Then, cells were counted (0 h) and grown in DMEM (no serum) or DMEM-10% FBS, in the presence of 100 nM peptides for 24, 48 and 72 h. Histograms represent the average of two separate experiments undertaken in duplicate.
(§5) (1 picture or pasted object on this page, not shown here)

The test system of test [2] is U87-MG cells. The settings on record: 24 h; for reduction of vessel formation (VM, branching points): U87-MG on Geltrex. As to the method: (§6) The tube formation assay was performed as previously described by Franco et al., using 3 × 10^4 U87-MG and 1.5 × 10^4 U251 cells/sample in the absence or presence of specific effectors included at time 0. The evaluation of vascular-like structures, as the branching points number, was performed using the Inverted Microscope DMI Leica 6000 ([…], Milan, Italy) and assessed in 4/5 random fields using the ImageJ 1.52a Software.
(§7) Here, U87-MG cells were plated onto Geltrex^TM, and the formation of round vascular-type structures was assessed after 24 h (Figure 6A). […] If cells are pretreated with nanomolar concentrations of the indicated cyclic peptides for 40 min at 37 °C prior to the VM assay, the number of intersections decreases. For this assay, the peptides [Ala^2, Ala^5]uPAcyclin, [Ala^1]uPAcyclin [Ala^4]uPAcyclin and [Ala^8]uPAcyclin, in addition to the parent uPAcyclin, were selected based on previous considerations. In the histogram shown in Figure 6B, the number of intersections per field is reported for untreated or peptide-exposed samples. As a reference, the uPAcyclin is indeed able to reduce vessel formation by 40% at 1 nM and by 70% at 100 nM. […] [Ala^2,Ala^5]uPAcyclin and [Ala^8]uPAcyclin are able to reduce VM by 50% at 1 nM and by 70% at 100 nM, confirming that they are both efficient inhibitors of GBM functions supporting malignancy. The formation of VM was also monitored in U251-MG cells, which were seeded under the same conditions employed for U87-MG cells. Representative images, reported in Figure 7A, show the elongated structures obtained after 24 h in Geltrex^TM matrix and their reduction in the cells pre-exposed to uPAcyclin, [Ala^2,Ala^5]uPAcyclin and [Ala^8]uPAcyclin. As shown in the histogram reported in Figure 7B, the uPAcyclin is indeed able to reduce vessel formation by 50% at 1 nM and by 80% at 100 nM. […] It is of note that, unlike [Ala^2,Ala^5]uPAcyclin or [Ala^8]uPAcyclin, [Ala^1]uPAcyclin is ineffective, even if employed at 100 nM.
Figure 6 Inhibition of vasculogenic mimicry by U87-MG glioblastoma cells. (A) Representative images of U87-MG cells cultured in DMEM/10% FBS (no matrix) or seeded onto Geltrex^TM in multiwell-96 (3 × 10^4 cells/well). When specified, cells were pre-treated with diluents (untreated) or with the indicated peptides at the indicated concentrations for 40 min at 37 °C prior to the VM assay. All images are taken after 24 h with the DMI Leica 6000 Inverted Microscope and 50× total magnification; scale bar: 100 μm. (B) The quantitation of branching points, defined as the intersection of at least three tubes (red arrows), was performed at 24 h either in control cells and cells exposed to the peptides and reported in the histogram (** p-value < 0.005; *** p-value < 0.001).

Test [3] relates to U87-MG cells. Description: Cell viability / proliferation, Trypan blue exclusion, U87-MG. As to conditions: DMEM/10% FBS, 100 nM peptide, 24, 48 and 72 h. As to the method: as §1, §2, §3, §4, §5
The subject of test [4] is U251-MG cells. Description: Vasculogenic mimicry (tube formation) assay, U251-MG on Geltrex. The settings on record: 24 h. As to the method: as §6, §7
Figure 7 Inhibition of vasculogenic mimicry by U251-MG glioblastoma cells. (A) Representative images of U251-MG cells cultured in DMEM/10% FBS (no matrix) or seeded onto Geltrex^TM in multiwell-96 (1.5 × 10^4 cells/well). When specified, cells were pretreated with diluents (untreated) or with the indicated peptides at the indicated concentrations for 40 min at 37 °C prior to the VM assay. All images are taken after 24 h with the DMI Leica 6000 Inverted Microscope with 50× total magnification; scale bar: 100 μm. (B) The quantitation and expression of branching points (red arrows), is accomplished as reported in the legend of Figure 6 (*** p-value < 0.001).

In the case of `CC(=O)N[C@@H](CCCCN)C(=O)N[C@@H](C)C(=O)N[C@H]1CCC(=O)NCCCC[C@@H](C(N)=O)NC(=O)[C@H](CC(C)C)NC(=O)[C@H](CCC(=O)O)NC(=O)[C@H](CCC(=O)O)NC(=O)[C@@H]2CCCN2C(=O)[C@H](C)NC(=O)[C@H](CO)NC1=O` [[Ala^2,Ala^5]uPAcyclin] (Ac-KAESAPEELK-NH2; lactam 3-10), the “growth rate / proliferation rate” value in the test on U251-MG cells [1] and in the test on U87-MG cells [3] was “slight but not significant decrease” in each case. Further, in the test with U87-MG cells [2], the IC50 was < 1 nM. For the same compound, the “reduction of vessel formation (VM, branching points)” value (from here on “reduction of vessel formation”) worked out at 50% with U87-MG cells [2] (1 nM peptide) and 70% in the test with U87-MG cells [2] (100 nM peptide). Further, the “inhibition of VM compared to uPAcyclin (in words)” value in the test with U251-MG cells [4] was “slightly more effective inhibitors”.

For the compound `CC(=O)N[C@@H](CCCCN)C(=O)N1CCC[C@H]1C(=O)N[C@H]1CCC(=O)NCCCC[C@@H](C(N)=O)NC(=O)[C@H](CC(C)C)NC(=O)[C@H](C)NC(=O)[C@H](CCC(=O)O)NC(=O)[C@@H]2CCCN2C(=O)[C@@H]2CCCN2C(=O)[C@H](CO)NC1=O` [[Ala^8]uPAcyclin] (Ac-KPESPPEALK-NH2; lactam 3-10), the “growth rate / proliferation rate” value with U251-MG cells [1] and in the test with U87-MG cells [3] was “similar” each time. Further, the IC50 in the test on U87-MG cells [2] is < 1 nM. Besides, the figures for the “reduction of vessel formation” value in the test with U87-MG cells [2] (1 nM peptide) and with U87-MG cells [2] (100 nM peptide) were 50% and 70%, respectively. In the test with U251-MG cells [4], the “inhibition of VM compared to uPAcyclin (in words)” value is reported as “slightly more effective inhibitors”.

On to `CC(=O)N[C@@H](CCCCN)C(=O)N1CCC[C@H]1C(=O)N[C@H]1CCC(=O)NCCCC[C@@H](C(N)=O)NC(=O)[C@H](CC(C)C)NC(=O)[C@H](CCC(=O)O)NC(=O)[C@H](CCC(=O)O)NC(=O)[C@@H]2CCCN2C(=O)[C@@H]2CCCN2C(=O)[C@H](CO)NC1=O` [uPAcyclin] (Ac-KPESPPEELK-NH2; lactam 3-10), for which the “growth rate / proliferation rate” value in the test on U251-MG cells [1] and in the test with U87-MG cells [3] was “similar” in each case. Further, the “reduction of vessel formation” value in the test on U87-MG cells [2] (1 nM peptide) came to 40%; in the test on U87-MG cells [2] (100 nM peptide) it was 70%; with U251-MG cells [4] (1 nM peptide), 50%; in the test on U251-MG cells [4] (100 nM peptide), 80%.
